Measurements from patent US20260297081A1, “COMPOUNDS AND METHODS OF TREATING CANCERS” (Cullgen Inc., priority 2023, published 2026).

Key:
Calu-1 cells = test: Anti-proliferation (viability) of NSCLC Calu-1 cells, 3 days (Table 7, FIG. 2B); format: cell-based; details: Homo sapiens, 72 h; Calu-1 cells, 3 days, 10-point serial dilution; read-out: GI IC50 in Calu-1
In short: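 Cells were exposed to heterobifunctional compounds across a 10-point serial dilution, for 3 days with Calu-1 and 6 days with T47D. A negative control was included that keeps the DDB1 ligand and linker but carries a modified warhead that impairs CDK4 binding.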

MCF7 cells = test: Anti-proliferation (viability) of MCF7 cells (Table 7, FIG. 2B); format: cell-based; details: Homo sapiens, MCF7, MCF7 cells, 3-6 days, 10-point serial dilution; read-out: GI IC50 in MCF-7

Row | SMILES | IC50 (Calu-1 cells) [nM] | IC50 (MCF7 cells) [nM]
1 | CC(=O)c1c(C)c2cnc(Nc3ccc(CN4CCN(CC(=O)N5CCC(Nc6nc(NC(C)C)ccc6C(=O)Nc6cc7n(n6)CCC7)CC5)CC4)cn3)nc2n(C2CCCC2)c1=O [CPD-530, 2-((1-(2-(4-((6-((6-acetyl-8-cyclopentyl-5-methyl-7-oxo-7,8-dihydropyrido[2,3-d]pyrimidin-2-yl)amino)pyridin-3-yl)methyl)piperazin-1-yl)acetyl)piperidin-4-yl)amino)-N-(5,6-dihydro-4H-pyrrolo[1,2-b]pyrazol-2-yl)-6-(isopropylamino)nicotinamide] | 10 to 50 | > 100
2 | CC(C)Nc1ccc(C(=O)Nc2ccc(N(C)C)nn2)c(NC2CCC(C(=O)N3CCC(N4CCN(c5ccc(Nc6ncc7ccc(=O)n(C8CCCC8)c7n6)nc5)CC4)C3)CC2)n1 (stereo not drawn) [CPD-535, 2-((4-(3-(4-(6-((8-cyclopentyl-7-oxo-7,8-dihydropyrido[2,3-d]pyrimidin-2-yl)amino)pyridin-3-yl)piperazin-1-yl)pyrrolidine-1-carbonyl)cyclohexyl)amino)-N-(6-(dimethylamino)pyridazin-3-yl)-6-(isopropylamino)nicotinamide] | 10 to 50 | 50 to 100
3 | CC(=O)c1c(C)c2cnc(Nc3ccc(N4CCC(N5CCC[C@H]5C(=O)NCC5CC(Nc6nc(NC(C)C)ccc6C(=O)Nc6ccc(N(C)C)nn6)C5)CC4)cn3)nc2n(C2CCCC2)c1=O (stereo partly drawn) [CPD-542, (S)-2-((3-((1-(1-(6-((6-acetyl-8-cyclopentyl-5-methyl-7-oxo-7,8-dihydropyrido[2,3-d]pyrimidin-2-yl)amino)pyridin-3-yl)piperidin-4-yl)pyrrolidine-2-carboxamido)methyl)cyclobutyl)amino)-N-(6-(dimethylamino)pyridazin-3-yl)-6-(isopropylamino)nicotinamide] | ≤ 10 | > 100
4 | CC(=O)c1c(C)c2cnc(Nc3ccc(N4CCC(N5CCC[C@H]5C(=O)NC5CC6(C5)CC(Nc5nc(NC(C)C)ccc5C(=O)Nc5ccc(N(C)C)nn5)C6)CC4)cn3)nc2n(C2CCCC2)c1=O (stereo partly drawn) [CPD-543, (S)-2-((6-(1-(1-(6-((6-acetyl-8-cyclopentyl-5-methyl-7-oxo-7,8-dihydropyrido[2,3-d]pyrimidin-2-yl)amino)pyridin-3-yl)piperidin-4-yl)pyrrolidine-2-carboxamido)spiro[3.3]heptan-2-yl)amino)-N-(6-(dimethylamino)pyridazin-3-yl)-6-(isopropylamino)nicotinamide] | ≤ 10 | < 50
5 | CC(=O)c1c(C)c2cnc(Nc3ccc(N4CCC(N5CCC[C@H]5C(=O)N5CC6(CC(Nc7nc(NC(C)C)ccc7C(=O)Nc7ccc(N(C)C)nn7)C6)C5)CC4)cn3)nc2n(C2CCCC2)c1=O [CPD-544, 2-((2-((1-(6-((6-acetyl-8-cyclopentyl-5-methyl-7-oxo-7,8-dihydropyrido[2,3-d]pyrimidin-2-yl)amino)pyridin-3-yl)piperidin-4-yl)-L-prolyl)-2-azaspiro[3.3]heptan-6-yl)amino)-N-(6-(dimethylamino)pyridazin-3-yl)-6-(isopropylamino)nicotinamide] | ≤ 10 | < 50
6 | CC(=O)c1c(C)c2cnc(Nc3ccc(N4CCN(C5CCN(C(=O)N6CC7(CCC(Nc8nc(NC(C)C)ccc8C(=O)Nc8ccc(N(C)C)nn8)C7)C6)C5)CC4)cn3)nc2n(C2CCCC2)c1=O (stereo not drawn) [CPD-545, 2-((2-(3-(4-(6-((6-acetyl-8-cyclopentyl-5-methyl-7-oxo-7,8-dihydropyrido[2,3-d]pyrimidin-2-yl)amino)pyridin-3-yl)piperazin-1-yl)pyrrolidine-1-carbonyl)-2-azaspiro[3.4]octan-6-yl)amino)-N-(6-(dimethylamino)pyridazin-3-yl)-6-(isopropylamino)nicotinamide] | 10 to 50 | > 100
7 | CC(=O)c1c(C)c2cnc(Nc3ccc(CN4CCN(CC(=O)N5CCC6(CCC(Nc7nc(NC(C)C)ccc7C(=O)Nc7cc(C)n(C)n7)C6)C5)CC4)cn3)nc2n(C2CCCC2)c1=O (stereo not drawn) [CPD-547, 2-((2-(2-(4-((6-((6-acetyl-8-cyclopentyl-5-methyl-7-oxo-7,8-dihydropyrido[2,3-d]pyrimidin-2-yl)amino)pyridin-3-yl)methyl)piperazin-1-yl)acetyl)-2-azaspiro[4.4]nonan-7-yl)amino)-N-(1,5-dimethyl-1H-pyrazol-3-yl)-6-(isopropylamino)nicotinamide] | ≤ 10 | < 50

More lines, now with the values ahead:

Row | IC50 (Calu-1 cells) [nM] | IC50 (MCF7 cells) [nM] | SMILES
8 | ≤ 10 | < 50 | CC(=O)c1c(C)c2cnc(Nc3ccc(N4CCN(C5CCN(C(=O)[C@H]6CC[C@H](Nc7cc(C(C)C)ccc7C(=O)Nc7ccc(N(C)C)nn7)CC6)C5)CC4)cn3)nc2n(C2CCCC2)c1=O (stereo partly drawn) [CPD-528, 2-((trans-4-(3-(4-(6-((6-acetyl-8-cyclopentyl-5-methyl-7-oxo-7,8-dihydropyrido[2,3-d]pyrimidin-2-yl)amino)pyridin-3-yl)piperazin-1-yl)pyrrolidine-1-carbonyl)cyclohexyl)amino)-N-(6-(dimethylamino)pyridazin-3-yl)-4-isopropylbenzamide]
9 | ≤ 10 | 50 to 100 | COc1cccc(NC(=O)c2ccc(NC(C)C)nc2NC2CCN(C(=O)CN3CCN(Cc4ccc(Nc5ncc6c(C)c(C(C)=O)c(=O)n(C7CCCC7)c6n5)nc4)CC3)CC2)n1 [CPD-533]
10 | ≤ 10 | < 50 | CC(=O)c1c(C)c2cnc(Nc3ccc(N4CCN(C5CCN(C(=O)C67CC(Nc8nc(NC(C)C)ccc8C(=O)Nc8ccc(N(C)C)nn8)(C6)C7)C5)CC4)cn3)nc2n(C2CCCC2)c1=O (stereo not drawn) [CPD-534, 2-((3-(3-(4-(6-((6-acetyl-8-cyclopentyl-5-methyl-7-oxo-7,8-dihydropyrido[2,3-d]pyrimidin-2-yl)amino)pyridin-3-yl)piperazin-1-yl)pyrrolidine-1-carbonyl)bicyclo[1.1.1]pentan-1-yl)amino)-N-(6-(dimethylamino)pyridazin-3-yl)-6-(isopropylamino)nicotinamide]
11 | ≤ 10 | 50 to 100 | CC(=O)c1c(C)c2cnc(Nc3ccc(CN4CCN(C(=O)CN5CC6(CC(Nc7nc(NC(C)C)ccc7C(=O)Nc7ccc(N(C)C)nn7)C6)C5)CC4)cn3)nc2n(C2CCCC2)c1=O [CPD-538, 2-((2-(2-(4-((6-((6-acetyl-8-cyclopentyl-5-methyl-7-oxo-7,8-dihydropyrido[2,3-d]pyrimidin-2-yl)amino)pyridin-3-yl)methyl)piperazin-1-yl)-2-oxoethyl)-2-azaspiro[3.3]heptan-6-yl)amnion)-N-(6-(dimethylamino)pyridazin-3-yl)-6-(isopropylamino)nicotinamide]
12 | ≤ 10 | < 50 | CC(=O)c1c(C)c2cnc(Nc3ccc(CN4CCN(C(=O)CN5CCC(Nc6nc(NC(C)C)ccc6C(=O)Nc6ccc(N(C)C)nn6)CC5)CC4)cn3)nc2n(C2CCCC2)c1=O [CPD-541, 2-((1-(2-(4-((6-((6-acetyl-8-cyclopentyl-5-methyl-7-oxo-7,8-dihydropyrido[2,3-d]pyrimidin-2-yl)amino)pyridin-3-yl)methyl)piperazin-1-yl)-2-oxoethyl)piperidin-4-yl)amino)-N-(6-(dimethylamino)pyridazin-3-yl)-6-(isopropylamino)nicotinamide]
